# Test results: publication PMC7382147, “An effective UFLC–MS/MS method used to study pharmacokinetics of major constituents of Fukeqianjin formula in rat plasma” (Chinese Medicine, 2020)
# Assay: Freeze–thaw stability of QC samples (−20 °C, three times)
# Assay type: physicochemical, rat
# Conditions: plasma QC, spiked 60 ng/mL, freeze (−20 °C) and thaw three times
# Description: (§1) Aliquots of 100 μL plasma samples were mixed with 10 μL I.S. samples (1 μg/mL, in MeOH), then added with 500 μL ACN, respectively, and vortexed for 5 min, centrifugated at 10,000 rpm for 10 min, the supernatants were transferred into clean vials and dried in a vacuum centrifugal concentrator at 1200 rpm, 37 °C. After that, 100 μL ACN was added and ultrasonic (frequency 40 kHz, power 250 W) extracted for 5 min to dissolve the dry residue, vortexed for 1 min and centrifugated at 10,000 rpm for 5 min, 1 μL of each final supernatant was injected into UFLC–MS/MS for analysis.
# (§2) Six replicates of low, medium and high concentrations of quality control (QC) samples were used to verify the stabilities under different conditions including: place at room temperature for 8 h, freeze (− 20 °C) and thaw for three times, and store at − 20 °C for 20 days.
row,Freeze–thaw stability Mean,SMILES
1,114.11%,"C=C1CC[C@@H]2[C@](C)(CO)[C@H](O)CC[C@@]2(C)[C@@H]1/C=C/C1=CCOC1=O [Analyte 15, 14-deoxy-11,12-didehydro-andrographolide]"
2,82.73%,"C=C1CC[C@@H]2[C@](C)(CO)CCC[C@@]2(C)[C@@H]1CCC1=CCOC1=O [Analyte 17, andrograpanin]"

# Same assay, conditions: plasma QC, spiked 300 ng/mL, freeze (−20 °C) and thaw three times
row,Freeze–thaw stability Mean,SMILES
1,105.94%,"C=C1CC[C@@H]2[C@](C)(CO)[C@H](O)CC[C@@]2(C)[C@@H]1/C=C/C1=CCOC1=O [Analyte 15, 14-deoxy-11,12-didehydro-andrographolide]"
2,86.68%,"C=C1CC[C@@H]2[C@](C)(CO)CCC[C@@]2(C)[C@@H]1CCC1=CCOC1=O [Analyte 17, andrograpanin]"

# Same assay, conditions: plasma QC, spiked 600 ng/mL, freeze (−20 °C) and thaw three times
row,Freeze–thaw stability Mean,SMILES
1,118.41%,"C=C1CC[C@@H]2[C@](C)(CO)[C@H](O)CC[C@@]2(C)[C@@H]1/C=C/C1=CCOC1=O [Analyte 15, 14-deoxy-11,12-didehydro-andrographolide]"
2,115.83%,"C=C1CC[C@@H]2[C@](C)(CO)CCC[C@@]2(C)[C@@H]1CCC1=CCOC1=O [Analyte 17, andrograpanin]"

# Assay: Long-term stability of QC samples (−20 °C for 20 days)
# Assay type: physicochemical, rat
# Conditions: plasma QC, spiked 60 ng/mL
# Description: as §1, §2
row,Long-term stability Mean,SMILES
1,100.55%,"C=C1CC[C@@H]2[C@](C)(CO)[C@H](O)CC[C@@]2(C)[C@@H]1/C=C/C1=CCOC1=O [Analyte 15, 14-deoxy-11,12-didehydro-andrographolide]"
2,87.43%,"C=C1CC[C@@H]2[C@](C)(CO)CCC[C@@]2(C)[C@@H]1CCC1=CCOC1=O [Analyte 17, andrograpanin]"

# Same assay, conditions: plasma QC, spiked 300 ng/mL
row,Long-term stability Mean,SMILES
1,98.43%,"C=C1CC[C@@H]2[C@](C)(CO)[C@H](O)CC[C@@]2(C)[C@@H]1/C=C/C1=CCOC1=O [Analyte 15, 14-deoxy-11,12-didehydro-andrographolide]"
2,90.66%,"C=C1CC[C@@H]2[C@](C)(CO)CCC[C@@]2(C)[C@@H]1CCC1=CCOC1=O [Analyte 17, andrograpanin]"

# Same assay, conditions: plasma QC, spiked 600 ng/mL
row,Long-term stability Mean,SMILES
1,88.35%,"C=C1CC[C@@H]2[C@](C)(CO)[C@H](O)CC[C@@]2(C)[C@@H]1/C=C/C1=CCOC1=O [Analyte 15, 14-deoxy-11,12-didehydro-andrographolide]"
2,117.51%,"C=C1CC[C@@H]2[C@](C)(CO)CCC[C@@]2(C)[C@@H]1CCC1=CCOC1=O [Analyte 17, andrograpanin]"

# Assay: Pharmacokinetic study in rat plasma after oral administration of FKQJF extract (UFLC–MS/MS)
# Assay type: in vivo, Sprague-Dawley (SD) rats
# Conditions: Sprague-Dawley, oral FKQJF extract, single dose 3.2 g/kg, mean ± SD
# Description: as §1
# An 8050 UFLC–MS/MS system equipped with LC-30A binary pump, a SIL-30AC autosampler, a SPD-M30A PDA detector, a CTO-20AC column oven, and a 8050 triple quadrupole mass spectrometer with an electrospray ionization source (ESI) was applied to detect and quantify FKQJF compounds in plasma samples. Data were acquired and processed with the software LabSolution (Ver. 5.6).
# A Kinetex XB-C18 HPLC column (100 × 2.1 mm, 2.6 μm) linked with an equivalent guard column was used for chromatographic separation. The aqueous phase contained 0.2% formic acid was used as mobile phase A, and organic phase ACN as mobile phase B. The gradient elution method using in this program was: 3–5 min, 28–31% B; 5–7 min, 31–34% B; 7–9 min, 34–65% B; 9–10 min, 65–95% B; 10–11.5 min, 95% B. The flow rate of mobile phase, column temperature and autosampler temperature was 0.4 mL/min, 30 °C and 4 °C, respectively. The injection volume of each sample was set as 1 μL. The main MS spectrum parameters were set as follows: the flow rate of drying gas (N2) was 10.0 L/min; the atomized gas was 3.0 L/min and the heating gas flow rate was 10.0 L/min. The main temperatures of interface, desolvation and heat block was 300 °C, 250 °C and 400 °C, respectively. And, the interface and detector voltage were 3 kV and 1.8 kV.
# Rats were divided into a blank group and a FKQJF administration group (6 rats for each), and fasted for 24 h. Each rat of the administration group was given FKQJF extract suspension at a single dose of 3.2 g FKQJF/kg body weight through oral administration in parallel. Blood samples (0.25 mL) were gathered from the orbital venous plexus of each rat, with FKQJF group gathered at 14 serial timepoints (6 rats for each) as 0.083 h, 0.16 h, 0.33 h, 0.5 h, 0.75 h, 1.0 h, 1.5 h, 2 h, 3 h, 4 h, 6 h, 8 h, 12 h and 24 h after drug administration. The blood samples were centrifugated at 6000g for 10 min to isolate plasma and stored at − 20 °C for further analysis.
# Data were analyzed using the Drug and Statistics (DAS) Software version 2.0 (DAS 2.0, Mathematical Pharmacology Professional Committee of China, Shanghai, China). The non-compartmental mode was applied to obtain the following PK parameters: area under the plasma concentration–time curve from time zero to the time of last quantifiable concentration (AUC0→t) and area under the plasma concentration–time curve to time infinity (AUC0→∞), the elimination half-life (t1/2), mean retention time to last sampling time (MRT0→t) and mean retention time to infinity (MRT0→∞). The maximum plasma concentration (Cmax) and the time to maximum concentration (Tmax) were observed directly from the concentration–time (C–T) curves and measured data. All data are presented as mean ± SD.
AUC(0-inf),AUC(0-t),Cmax,half-life,SMILES
81.1 ± 19.4 ng·h/mL,74.3 ± 17.5 ng·h/mL,47.7 ± 5.92 ng/mL,1.2 ± 0.74 h,"C=C1CC[C@@H]2[C@](C)(CO)[C@H](O)CC[C@@]2(C)[C@@H]1/C=C/C1=CCOC1=O [Analyte 15, 14-deoxy-11,12-didehydro-andrographolide]"
179 ± 14.3 ng·h/mL,161 ± 12.7 ng·h/mL,19.2 ± 2.48 ng/mL,5.98 ± 0.4 h,"C=C1CC[C@@H]2[C@](C)(CO)CCC[C@@]2(C)[C@@H]1CCC1=CCOC1=O [Analyte 17, andrograpanin]"

# Same assay, conditions: Sprague-Dawley, oral FKQJF extract, single dose 3.2 g/kg, mean ± SD, read-out: MRT0→t
row,MRT last,SMILES
1,2.21 ± 0.48 h,"C=C1CC[C@@H]2[C@](C)(CO)[C@H](O)CC[C@@]2(C)[C@@H]1/C=C/C1=CCOC1=O [Analyte 15, 14-deoxy-11,12-didehydro-andrographolide]"
2,7.3 ± 0.38 h,"C=C1CC[C@@H]2[C@](C)(CO)CCC[C@@]2(C)[C@@H]1CCC1=CCOC1=O [Analyte 17, andrograpanin]"

# Same assay, conditions: Sprague-Dawley, oral FKQJF extract, single dose 3.2 g/kg, mean ± SD, read-out: MRT0→∞
row,MRT inf,SMILES
1,3.05 ± 1.01 h,"C=C1CC[C@@H]2[C@](C)(CO)[C@H](O)CC[C@@]2(C)[C@@H]1/C=C/C1=CCOC1=O [Analyte 15, 14-deoxy-11,12-didehydro-andrographolide]"
2,9.82 ± 0.45 h,"C=C1CC[C@@H]2[C@](C)(CO)CCC[C@@]2(C)[C@@H]1CCC1=CCOC1=O [Analyte 17, andrograpanin]"

# Same assay, conditions: Sprague-Dawley, oral FKQJF extract, single dose 3.2 g/kg, mean ± SD, read-out: Tmax
row,Tmax,SMILES
1,1.42 ± 0.63 h,"C=C1CC[C@@H]2[C@](C)(CO)[C@H](O)CC[C@@]2(C)[C@@H]1/C=C/C1=CCOC1=O [Analyte 15, 14-deoxy-11,12-didehydro-andrographolide]"
2,3.33 ± 2.31 h,"C=C1CC[C@@H]2[C@](C)(CO)CCC[C@@]2(C)[C@@H]1CCC1=CCOC1=O [Analyte 17, andrograpanin]"

# Same assay, conditions: oral FKQJF extract 3.2 g/kg
row,shape of the plasma concentration–time curve,SMILES
1,double-peaks,"C=C1CC[C@@H]2[C@](C)(CO)[C@H](O)CC[C@@]2(C)[C@@H]1/C=C/C1=CCOC1=O [Analyte 15, 14-deoxy-11,12-didehydro-andrographolide]"
2,double-peaks,"C=C1CC[C@@H]2[C@](C)(CO)CCC[C@@]2(C)[C@@H]1CCC1=CCOC1=O [Analyte 17, andrograpanin]"

# Same assay, conditions: oral FKQJF extract 3.2 g/kg, post dose
time of first peak of the concentration–time curve,time of second peak of the concentration–time curve,SMILES
0 to 1 h,1.5 to 3 h,"C=C1CC[C@@H]2[C@](C)(CO)[C@H](O)CC[C@@]2(C)[C@@H]1/C=C/C1=CCOC1=O [Analyte 15, 14-deoxy-11,12-didehydro-andrographolide]"

# Assay: Ordinary stability of QC samples (room temperature for 8 h)
# Assay type: physicochemical, rat
# Conditions: plasma QC, spiked 60 ng/mL, room temperature 8 h
# Description: as §1, §2
row,Ordinary stability Mean,SMILES
1,89.92%,"C=C1CC[C@@H]2[C@](C)(CO)[C@H](O)CC[C@@]2(C)[C@@H]1/C=C/C1=CCOC1=O [Analyte 15, 14-deoxy-11,12-didehydro-andrographolide]"
2,81.80%,"C=C1CC[C@@H]2[C@](C)(CO)CCC[C@@]2(C)[C@@H]1CCC1=CCOC1=O [Analyte 17, andrograpanin]"

# Same assay, conditions: plasma QC, spiked 300 ng/mL, room temperature 8 h
row,Ordinary stability Mean,SMILES
1,119.43%,"C=C1CC[C@@H]2[C@](C)(CO)[C@H](O)CC[C@@]2(C)[C@@H]1/C=C/C1=CCOC1=O [Analyte 15, 14-deoxy-11,12-didehydro-andrographolide]"
2,117.99%,"C=C1CC[C@@H]2[C@](C)(CO)CCC[C@@]2(C)[C@@H]1CCC1=CCOC1=O [Analyte 17, andrograpanin]"

# Same assay, conditions: plasma QC, spiked 600 ng/mL, room temperature 8 h
row,Ordinary stability Mean,SMILES
1,82.90%,"C=C1CC[C@@H]2[C@](C)(CO)[C@H](O)CC[C@@]2(C)[C@@H]1/C=C/C1=CCOC1=O [Analyte 15, 14-deoxy-11,12-didehydro-andrographolide]"
2,89.06%,"C=C1CC[C@@H]2[C@](C)(CO)CCC[C@@]2(C)[C@@H]1CCC1=CCOC1=O [Analyte 17, andrograpanin]"
